Data as given in patent US20030155090A1, “Process for controlling microbial growth” (priority 2000, published 2003).

What was measured:
Strain 3 = assay: Survival of isolated bacteria in nutrient broth under a CO2 atmosphere at 45° C., colony count on agar plates; assay type: cell-based
Procedure: (§1) A set of representative bacterial strains was isolated from a white water sample from a Swedish recycled pulp mill. The sample originally yielded 70 bacterial strains which each represented a group of different bacteria, which grew under similar conditions. The strains were tested on different media and their oxygen demands were studied. The results gave an indication of eight main groups. […] Those three groups were put together to one large group.
(§2) From this dominating group, one strain was chosen for the carbon dioxide experiments. Two other strains from another recycled pulp mill were included in the experiments.
(§3) Glass bottles were tempered to 45° C. and CO2 was added to create a carbon dioxide atmosphere. Bacteria from the three isolated strains were added to separate bottles together with a nutrient broth. A first sample representing “0 min” was taken out immediately from each bottle and then at a number of occasions during the next three hours. Each sample was diluted in dilution series with dilution 1/10 in six steps (10^1-10^6) and grown on agar plates. The plates were incubated at 45° C. for two days, after which the number of colonies were counted and related to the dilution.

Strain 1 = assay: as above; assay type: cell-based
Procedure: as §1, §2, §3

Strain 2 = assay: as above; assay type: cell-based
Procedure: as §1, §2, §3

[1] = system: microbial activity during storage; assay: Full-scale mill trial, carbon dioxide introduced just prior to the pulp storage tower; details: 1-2 kg CO2/ton pulp just prior to the storage tower, chemical pulp
Procedure: A mill produced wood-free paper from chemical pulp. At the time of the trials, the mill stored pulp for long periods of time in storage towers prior to the stock preparation. The storage caused problems with bad smell and black spots in the pulp, which was believed to be caused by high microbial activity during storage.
A full-scale trial of treatment with a gaseous inhibitor was performed. Thus, carbon dioxide gas was introduced in an amount of 1-2 kg CO2/ton pulp just prior to the storage tower.

three isolated strains = assay: Survival under a CO2 atmosphere, average of the three isolated strains; assay type: cell-based, bacteria; details: for percentage of surviving cells, Average: 45° C.
Procedure: as §1, §2, §3

SMILES: O=C=O [CO2, carbon dioxide]
- percentage of surviving cells (Strain 3; Strain 3, 0 min): 100%
- percentage of surviving cells (Strain 3; Strain 3, 10 min): 92%
- percentage of surviving cells (Strain 3; Strain 3, 20 min): 77%
- percentage of surviving cells (Strain 3; Strain 3, 30 min): 58%
- percentage of surviving cells (Strain 3; Strain 3, 40 min): 47%
- percentage of surviving cells (Strain 3; Strain 3, 50 min): 36%
- percentage of surviving cells (Strain 3; Strain 3, 60 min): 67%
- percentage of surviving cells (Strain 3; Strain 3, 80 min): 44%
- percentage of surviving cells (Strain 3; Strain 3, 100 min): 42%
- percentage of surviving cells (Strain 3; Strain 3, 120 min): 16%
- percentage of surviving cells (Strain 3; Strain 3, 140 min): 7%
- percentage of surviving cells (Strain 3; Strain 3, 160 min): 4%
- percentage of surviving cells (Strain 3; Strain 3, 180 min): 2%
- percentage of surviving cells (Strain 1; Strain 1, 0 min): 100%
- percentage of surviving cells (Strain 1; Strain 1, 10 min): 75%
- percentage of surviving cells (Strain 1; Strain 1, 20 min): 34%
- percentage of surviving cells (Strain 1; Strain 1, 30 min): 73%
- percentage of surviving cells (Strain 1; Strain 1, 40 min): 50%
- percentage of surviving cells (Strain 1; Strain 1, 50 min): 61%
- percentage of surviving cells (Strain 1; Strain 1, 60 min): 59%
- percentage of surviving cells (Strain 1; Strain 1, 80 min): 39%
- percentage of surviving cells (Strain 1; Strain 1, 100 min): 16%
- percentage of surviving cells (Strain 1; Strain 1, 120 min): 18%
- percentage of surviving cells (Strain 1; Strain 1, 140 min): 5%
- percentage of surviving cells (Strain 1; Strain 1, 160 min): 4%
- percentage of surviving cells (Strain 1; Strain 1, 180 min): 9%
- percentage of surviving cells (Strain 2; Strain 2, 0 min): 100%
- percentage of surviving cells (Strain 2; Strain 2, 10 min): 141%
- percentage of surviving cells (Strain 2; Strain 2, 20 min): 76%
- percentage of surviving cells (Strain 2; Strain 2, 30 min): 137%
- percentage of surviving cells (Strain 2; Strain 2, 40 min): 48%
- percentage of surviving cells (Strain 2; Strain 2, 50 min): 94%
- percentage of surviving cells (Strain 2; Strain 2, 60 min): 46%
- percentage of surviving cells (Strain 2; Strain 2, 80 min): 88%
- percentage of surviving cells (Strain 2; Strain 2, 100 min): 55%
- percentage of surviving cells (Strain 2; Strain 2, 120 min): 43%
- percentage of surviving cells (Strain 2; Strain 2, 140 min): 35%
- percentage of surviving cells (Strain 2; Strain 2, 160 min): 41%
- percentage of surviving cells (Strain 2; Strain 2, 180 min): 24%
- number of black spots in the pulp [1]: reduced
- pulp's smell [1]: reduced
- percentage of surviving cells, Average (three isolated strains; Average of Strains 1-3, 0 min): 100%
- percentage of surviving cells, Average (three isolated strains; Average of Strains 1-3, 10 min): 103%
- percentage of surviving cells, Average (three isolated strains; Average of Strains 1-3, 20 min): 62%
- percentage of surviving cells, Average (three isolated strains; Average of Strains 1-3, 30 min): 89%
- percentage of surviving cells, Average (three isolated strains; Average of Strains 1-3, 40 min): 48%
- percentage of surviving cells, Average (three isolated strains; Average of Strains 1-3, 50 min): 64%
- percentage of surviving cells, Average (three isolated strains; Average of Strains 1-3, 60 min): 57%
- percentage of surviving cells, Average (three isolated strains; Average of Strains 1-3, 80 min): 57%
- percentage of surviving cells, Average (three isolated strains; Average of Strains 1-3, 100 min): 38%
- percentage of surviving cells, Average (three isolated strains; Average of Strains 1-3, 120 min): 47%
- percentage of surviving cells, Average (three isolated strains; Average of Strains 1-3, 140 min): 16%
- percentage of surviving cells, Average (three isolated strains; Average of Strains 1-3, 160 min): 16%
- percentage of surviving cells, Average (three isolated strains; Average of Strains 1-3, 180 min): 12%
- bacteria survived (three isolated strains; after 2 hours): about 50%
- bacteria survived (three isolated strains; after 3 hours): more than 10%
- bacteria survived (three isolated strains; after approximately 1 hour): about 60%
